# Results taken from PMC8401933 (Molecules, 2021).
# Experiments:
# TRKB = target: T1, TRKB (Homo sapiens, UniProt Q16620); assay: KINOMEscan binding; conditions: read-out: Percent Control
# T1 construct: purchased Eurofins DiscoverX KINOMEscan
# STK39 = target: T2, STK39 (Homo sapiens, UniProt Q9UEW8); assay: KINOMEscan binding; conditions: read-out: Percent Control
# T2 construct: purchased Eurofins DiscoverX KINOMEscan
# TRPM6 = target: T3, TRPM6 (Homo sapiens, UniProt Q9BX84); assay: KINOMEscan binding; conditions: read-out: Percent Control
# T3 construct: purchased Eurofins DiscoverX KINOMEscan
# LZK = target: T4, LZK (Homo sapiens, UniProt O43283); assay: KINOMEscan binding; conditions: read-out: Percent Control
# T4 construct: purchased Eurofins DiscoverX KINOMEscan
# PRKD1 = target: T5, PRKD1 (Homo sapiens, UniProt Q15139); assay: KINOMEscan binding; conditions: read-out: Percent Control
# T5 construct: purchased Eurofins DiscoverX KINOMEscan
# NEK11 = target: T6, NEK11 (Homo sapiens, UniProt Q8NG66); assay: KINOMEscan binding; conditions: read-out: Percent Control
# T6 construct: purchased Eurofins DiscoverX KINOMEscan
# KIT(D816H) = target: T7, KIT(D816H) (Homo sapiens, UniProt P10721, D816H); assay: KINOMEscan binding; conditions: read-out: Percent Control
# T7 construct: purchased Eurofins DiscoverX KINOMEscan
# DAPK1 = target: T8, DAPK1 (Homo sapiens, UniProt P53355); assay: KINOMEscan binding; conditions: read-out: Percent Control
# T8 construct: purchased Eurofins DiscoverX KINOMEscan
# AKT2 = target: T9, AKT2 (Homo sapiens, UniProt P31751); assay: KINOMEscan binding; conditions: read-out: Percent Control
# T9 construct: purchased Eurofins DiscoverX KINOMEscan
# [1] = target: T10, RSK1(Kin.Dom.2-C-terminal) (Homo sapiens, UniProt Q15418); assay: KINOMEscan binding; conditions: read-out: Percent Control
# T10 construct: RSK1(Kin.Dom.2-C-terminal); purchased Eurofins DiscoverX KINOMEscan
# RET(V804M) = target: T11, RET(V804M) (Homo sapiens, UniProt P07949, V804M); assay: KINOMEscan binding; conditions: read-out: Percent Control
# T11 construct: purchased Eurofins DiscoverX KINOMEscan
# EPHA4 = target: T12, EPHA4 (Homo sapiens, UniProt P54764); assay: KINOMEscan binding; conditions: read-out: Percent Control
# T12 construct: purchased Eurofins DiscoverX KINOMEscan
# TRKA = target: T13, TRKA (Homo sapiens, UniProt P04629); assay: KINOMEscan binding; conditions: read-out: Percent Control
# T13 construct: purchased Eurofins DiscoverX KINOMEscan
# CSNK2A2 = target: T14, CSNK2A2 (Homo sapiens, UniProt P19784); assay: KINOMEscan binding; conditions: read-out: Percent Control
# T14 construct: purchased Eurofins DiscoverX KINOMEscan
# AKT1 = target: T15, AKT1 (Homo sapiens, UniProt P31749); assay: KINOMEscan binding; conditions: read-out: Percent Control
# T15 construct: purchased Eurofins DiscoverX KINOMEscan
# [2] = target: T16, RSK3(Kin.Dom.1-N-terminal) (Homo sapiens, UniProt Q15349); assay: KINOMEscan binding; conditions: read-out: Percent Control
# T16 construct: RSK3(Kin.Dom.1-N-terminal); purchased Eurofins DiscoverX KINOMEscan
# SNRK = target: T17, SNRK (Homo sapiens, UniProt Q9NRH2); assay: KINOMEscan binding; conditions: read-out: Percent Control
# T17 construct: purchased Eurofins DiscoverX KINOMEscan
# ERBB2 = target: T18, ERBB2 (Homo sapiens, UniProt P04626); assay: KINOMEscan binding; conditions: read-out: Percent Control
# T18 construct: purchased Eurofins DiscoverX KINOMEscan
# MAK = target: T19, MAK (Homo sapiens, UniProt P20794); assay: KINOMEscan binding; conditions: read-out: Percent Control
# T19 construct: purchased Eurofins DiscoverX KINOMEscan
# [3] = target: T20, RPS6KA5(Kin.Dom.2-C-terminal) (Homo sapiens, UniProt O75582); assay: KINOMEscan binding; conditions: read-out: Percent Control
# T20 construct: RPS6KA5(Kin.Dom.2-C-terminal); purchased Eurofins DiscoverX KINOMEscan
# STK35 = target: T21, STK35 (Homo sapiens, UniProt Q8TDR2); assay: KINOMEscan binding; conditions: read-out: Percent Control
# T21 construct: purchased Eurofins DiscoverX KINOMEscan
# GSK3A = target: T22, GSK3A (Homo sapiens, UniProt P49840); assay: KINOMEscan binding; conditions: read-out: Percent Control
# T22 construct: purchased Eurofins DiscoverX KINOMEscan
# ASK1 = target: T23, ASK1 (Homo sapiens, UniProt Q99683); assay: KINOMEscan binding; conditions: read-out: Percent Control
# T23 construct: purchased Eurofins DiscoverX KINOMEscan
# TBK1 = target: T24, TBK1 (Homo sapiens, UniProt Q9UHD2); assay: KINOMEscan binding; conditions: read-out: Percent Control
# T24 construct: purchased Eurofins DiscoverX KINOMEscan
# CLK3 = target: T25, CLK3 (Homo sapiens, UniProt P49761); assay: KINOMEscan binding; conditions: read-out: Percent Control
# T25 construct: purchased Eurofins DiscoverX KINOMEscan
# MYLK = target: T26, MYLK (Homo sapiens, UniProt Q15746); assay: KINOMEscan binding; conditions: read-out: Percent Control
# T26 construct: purchased Eurofins DiscoverX KINOMEscan
# IRAK4 = target: T27, IRAK4 (Homo sapiens, UniProt Q9NWZ3); assay: KINOMEscan binding; conditions: read-out: Percent Control
# T27 construct: purchased Eurofins DiscoverX KINOMEscan
# PLK4 = target: T28, PLK4 (Homo sapiens, UniProt O00444); assay: KINOMEscan binding; conditions: read-out: Percent Control
# T28 construct: purchased Eurofins DiscoverX KINOMEscan
# ALK = target: T29, ALK (Homo sapiens, UniProt Q9UM73); assay: KINOMEscan binding; conditions: read-out: Percent Control
# T29 construct: purchased Eurofins DiscoverX KINOMEscan
# CDKL3 = target: T30, CDKL3 (Homo sapiens, UniProt Q8IVW4); assay: KINOMEscan binding; conditions: read-out: Percent Control
# T30 construct: purchased Eurofins DiscoverX KINOMEscan
# CIT = target: T31, CIT (Homo sapiens, UniProt O14578); assay: KINOMEscan binding; conditions: read-out: Percent Control
# T31 construct: purchased Eurofins DiscoverX KINOMEscan
# MAP3K1 = target: T32, MAP3K1 (Homo sapiens, UniProt Q13233); assay: KINOMEscan binding; conditions: read-out: Percent Control
# T32 construct: purchased Eurofins DiscoverX KINOMEscan
# PKMYT1 = target: T33, PKMYT1 (Homo sapiens, UniProt Q99640); assay: KINOMEscan binding; conditions: read-out: Percent Control
# T33 construct: purchased Eurofins DiscoverX KINOMEscan
# BRSK1 = target: T34, BRSK1 (Homo sapiens, UniProt Q8TDC3); assay: KINOMEscan binding; conditions: read-out: Percent Control
# T34 construct: purchased Eurofins DiscoverX KINOMEscan
# EIF2AK1 = target: T35, EIF2AK1 (Homo sapiens, UniProt Q9BQI3); assay: KINOMEscan binding; conditions: read-out: Percent Control
# T35 construct: purchased Eurofins DiscoverX KINOMEscan
# CSNK1G3 = target: T36, CSNK1G3 (Homo sapiens, UniProt Q9Y6M4); assay: KINOMEscan binding; conditions: read-out: Percent Control
# T36 construct: purchased Eurofins DiscoverX KINOMEscan
# FLT3(R834Q) = target: T37, FLT3(R834Q) (Homo sapiens, UniProt P36888, R834Q); assay: KINOMEscan binding; conditions: read-out: Percent Control
# T37 construct: purchased Eurofins DiscoverX KINOMEscan
# CSK = target: T38, CSK (Homo sapiens, UniProt P41240); assay: KINOMEscan binding; conditions: read-out: Percent Control
# T38 construct: purchased Eurofins DiscoverX KINOMEscan
# DAPK3 = target: T39, DAPK3 (Homo sapiens, UniProt O43293); assay: KINOMEscan binding; conditions: read-out: Percent Control
# T39 construct: purchased Eurofins DiscoverX KINOMEscan
# [4] = oral, rat model; cited from earlier work
# PHKG1 = target: T40, PHKG1 (Homo sapiens, UniProt Q16816); assay: KINOMEscan binding; conditions: read-out: Percent Control
# T40 construct: purchased Eurofins DiscoverX KINOMEscan
# IKK-epsilon = target: T41, IKK-epsilon (Homo sapiens, UniProt Q14164); assay: KINOMEscan binding; conditions: read-out: Percent Control
# T41 construct: purchased Eurofins DiscoverX KINOMEscan
# T18 sequence (P04626 23-1255): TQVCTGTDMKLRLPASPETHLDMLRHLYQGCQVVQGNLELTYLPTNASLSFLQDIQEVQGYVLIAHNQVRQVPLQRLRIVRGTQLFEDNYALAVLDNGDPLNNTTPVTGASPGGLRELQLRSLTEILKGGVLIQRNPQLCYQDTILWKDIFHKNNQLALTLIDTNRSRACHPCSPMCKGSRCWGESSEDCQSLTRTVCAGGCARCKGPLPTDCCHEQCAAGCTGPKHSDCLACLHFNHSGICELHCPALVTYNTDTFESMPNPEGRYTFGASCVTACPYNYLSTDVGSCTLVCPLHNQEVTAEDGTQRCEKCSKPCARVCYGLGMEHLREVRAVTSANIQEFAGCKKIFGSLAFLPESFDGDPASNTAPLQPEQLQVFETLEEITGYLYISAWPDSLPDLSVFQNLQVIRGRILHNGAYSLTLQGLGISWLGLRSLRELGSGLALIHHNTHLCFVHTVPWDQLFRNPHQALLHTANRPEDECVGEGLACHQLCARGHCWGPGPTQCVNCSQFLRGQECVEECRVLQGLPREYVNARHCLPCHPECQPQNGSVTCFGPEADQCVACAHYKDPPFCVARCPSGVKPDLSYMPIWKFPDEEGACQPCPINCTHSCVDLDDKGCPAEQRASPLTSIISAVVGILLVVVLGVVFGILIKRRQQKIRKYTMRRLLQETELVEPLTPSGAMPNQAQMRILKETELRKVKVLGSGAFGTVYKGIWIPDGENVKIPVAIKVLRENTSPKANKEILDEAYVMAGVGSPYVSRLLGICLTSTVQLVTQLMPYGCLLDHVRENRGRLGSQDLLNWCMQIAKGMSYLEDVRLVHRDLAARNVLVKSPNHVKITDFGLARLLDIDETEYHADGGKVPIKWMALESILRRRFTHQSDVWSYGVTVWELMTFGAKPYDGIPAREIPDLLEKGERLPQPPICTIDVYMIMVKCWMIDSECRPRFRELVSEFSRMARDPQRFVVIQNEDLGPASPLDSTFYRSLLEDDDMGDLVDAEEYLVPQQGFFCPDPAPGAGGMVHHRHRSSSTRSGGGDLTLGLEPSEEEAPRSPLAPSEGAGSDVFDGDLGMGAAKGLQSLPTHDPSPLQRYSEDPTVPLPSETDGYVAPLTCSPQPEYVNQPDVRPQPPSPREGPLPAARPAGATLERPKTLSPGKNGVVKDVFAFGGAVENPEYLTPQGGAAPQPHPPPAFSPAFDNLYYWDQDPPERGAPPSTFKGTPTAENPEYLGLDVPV
# T27 sequence (Q9NWZ3 whole entry): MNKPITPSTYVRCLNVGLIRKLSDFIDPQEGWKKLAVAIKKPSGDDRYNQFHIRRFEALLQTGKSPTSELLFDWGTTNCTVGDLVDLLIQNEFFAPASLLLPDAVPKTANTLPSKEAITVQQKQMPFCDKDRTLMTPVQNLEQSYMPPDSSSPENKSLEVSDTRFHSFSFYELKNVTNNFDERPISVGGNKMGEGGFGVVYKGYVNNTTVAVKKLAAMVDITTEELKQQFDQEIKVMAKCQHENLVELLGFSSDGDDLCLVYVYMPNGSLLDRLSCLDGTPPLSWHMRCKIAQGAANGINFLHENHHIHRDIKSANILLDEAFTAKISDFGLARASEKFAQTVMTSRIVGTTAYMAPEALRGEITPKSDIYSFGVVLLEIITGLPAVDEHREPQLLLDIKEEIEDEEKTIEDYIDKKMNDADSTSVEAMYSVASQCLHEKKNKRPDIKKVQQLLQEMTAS
# T19 sequence (P20794 whole entry): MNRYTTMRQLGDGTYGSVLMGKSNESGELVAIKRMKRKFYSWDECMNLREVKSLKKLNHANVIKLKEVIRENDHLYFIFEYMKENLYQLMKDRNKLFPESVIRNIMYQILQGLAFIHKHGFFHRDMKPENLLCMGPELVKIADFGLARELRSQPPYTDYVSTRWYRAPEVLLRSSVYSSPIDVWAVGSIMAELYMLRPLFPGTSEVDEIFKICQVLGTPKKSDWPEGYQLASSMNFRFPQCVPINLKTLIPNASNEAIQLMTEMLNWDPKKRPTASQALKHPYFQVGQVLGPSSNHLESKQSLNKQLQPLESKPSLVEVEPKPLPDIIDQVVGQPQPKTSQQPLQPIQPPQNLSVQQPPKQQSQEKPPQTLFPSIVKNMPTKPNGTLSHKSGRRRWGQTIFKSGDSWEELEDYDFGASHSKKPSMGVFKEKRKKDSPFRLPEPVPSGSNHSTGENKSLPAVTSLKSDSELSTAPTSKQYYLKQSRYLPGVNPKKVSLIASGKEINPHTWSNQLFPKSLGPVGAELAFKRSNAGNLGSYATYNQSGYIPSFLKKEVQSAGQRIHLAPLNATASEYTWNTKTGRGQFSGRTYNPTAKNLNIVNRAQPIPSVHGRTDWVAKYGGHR
# T30 sequence (Q8IVW4 whole entry): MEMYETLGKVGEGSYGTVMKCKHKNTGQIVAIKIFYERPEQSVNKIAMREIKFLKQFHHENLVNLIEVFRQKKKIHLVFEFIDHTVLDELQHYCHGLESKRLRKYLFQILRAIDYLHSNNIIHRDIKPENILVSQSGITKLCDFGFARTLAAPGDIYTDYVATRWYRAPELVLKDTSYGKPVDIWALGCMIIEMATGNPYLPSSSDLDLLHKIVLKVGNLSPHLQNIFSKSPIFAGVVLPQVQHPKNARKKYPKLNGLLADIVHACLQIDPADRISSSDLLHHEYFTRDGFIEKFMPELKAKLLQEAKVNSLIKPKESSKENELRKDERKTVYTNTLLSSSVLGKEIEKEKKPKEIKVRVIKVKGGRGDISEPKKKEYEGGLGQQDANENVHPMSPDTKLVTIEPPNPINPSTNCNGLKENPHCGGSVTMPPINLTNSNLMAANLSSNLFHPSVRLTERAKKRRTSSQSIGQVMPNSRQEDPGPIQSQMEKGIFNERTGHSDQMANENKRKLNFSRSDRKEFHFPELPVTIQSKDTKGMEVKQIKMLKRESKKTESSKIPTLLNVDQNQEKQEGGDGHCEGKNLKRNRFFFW
# T9 sequence (P31751 whole entry): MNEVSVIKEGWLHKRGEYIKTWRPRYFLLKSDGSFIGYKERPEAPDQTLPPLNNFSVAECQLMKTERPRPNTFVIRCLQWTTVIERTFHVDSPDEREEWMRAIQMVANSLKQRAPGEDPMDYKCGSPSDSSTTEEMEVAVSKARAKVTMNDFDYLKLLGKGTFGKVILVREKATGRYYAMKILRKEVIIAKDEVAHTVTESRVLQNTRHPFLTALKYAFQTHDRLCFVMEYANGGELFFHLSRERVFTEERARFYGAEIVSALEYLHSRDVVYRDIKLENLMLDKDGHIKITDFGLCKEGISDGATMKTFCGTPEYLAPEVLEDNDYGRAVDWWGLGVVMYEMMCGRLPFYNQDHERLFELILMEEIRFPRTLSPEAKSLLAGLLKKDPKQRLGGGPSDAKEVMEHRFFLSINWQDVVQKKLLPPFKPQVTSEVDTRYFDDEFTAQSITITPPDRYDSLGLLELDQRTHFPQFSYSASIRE
# T28 sequence (O00444 whole entry): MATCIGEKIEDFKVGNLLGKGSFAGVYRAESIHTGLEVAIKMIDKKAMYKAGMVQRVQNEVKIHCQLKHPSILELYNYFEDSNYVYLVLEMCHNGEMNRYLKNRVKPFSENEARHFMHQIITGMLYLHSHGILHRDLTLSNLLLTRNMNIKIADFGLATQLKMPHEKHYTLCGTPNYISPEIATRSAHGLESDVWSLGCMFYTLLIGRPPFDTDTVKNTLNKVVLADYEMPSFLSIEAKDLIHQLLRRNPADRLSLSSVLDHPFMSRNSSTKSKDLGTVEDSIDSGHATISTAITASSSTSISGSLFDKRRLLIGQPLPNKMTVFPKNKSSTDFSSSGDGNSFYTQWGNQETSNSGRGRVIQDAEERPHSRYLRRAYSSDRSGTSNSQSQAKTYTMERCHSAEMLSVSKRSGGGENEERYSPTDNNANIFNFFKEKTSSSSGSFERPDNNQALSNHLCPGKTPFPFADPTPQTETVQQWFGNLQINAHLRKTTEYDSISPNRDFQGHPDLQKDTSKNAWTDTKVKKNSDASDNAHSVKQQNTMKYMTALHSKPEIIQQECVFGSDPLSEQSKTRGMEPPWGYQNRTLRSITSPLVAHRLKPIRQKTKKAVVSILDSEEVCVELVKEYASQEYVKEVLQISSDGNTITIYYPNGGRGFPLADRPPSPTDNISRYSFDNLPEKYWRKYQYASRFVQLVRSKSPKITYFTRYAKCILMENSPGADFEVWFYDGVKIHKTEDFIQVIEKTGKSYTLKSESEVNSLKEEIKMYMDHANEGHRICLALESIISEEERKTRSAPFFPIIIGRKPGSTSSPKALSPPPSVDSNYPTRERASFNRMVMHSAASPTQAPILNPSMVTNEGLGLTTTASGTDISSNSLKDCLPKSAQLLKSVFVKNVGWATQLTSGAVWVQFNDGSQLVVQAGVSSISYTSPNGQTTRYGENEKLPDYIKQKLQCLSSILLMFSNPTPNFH
# T10 sequence (Q15418 392-735 limits assumed): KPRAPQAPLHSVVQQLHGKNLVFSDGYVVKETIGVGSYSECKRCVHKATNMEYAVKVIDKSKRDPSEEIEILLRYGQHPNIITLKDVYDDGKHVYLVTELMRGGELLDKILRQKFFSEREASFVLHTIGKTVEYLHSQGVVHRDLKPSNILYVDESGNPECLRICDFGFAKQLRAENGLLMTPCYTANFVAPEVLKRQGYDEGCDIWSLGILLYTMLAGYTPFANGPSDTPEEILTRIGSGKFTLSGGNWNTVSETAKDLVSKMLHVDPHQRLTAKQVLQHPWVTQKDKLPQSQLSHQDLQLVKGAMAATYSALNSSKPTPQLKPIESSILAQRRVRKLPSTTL
compound,measurement,setting,value
"CC(C)NC(=O)COc1cccc(-c2nc(Nc3ccc4[nH]ncc4c3)c3ccccc3n2)c1 [KD025, 2-(3-(4-((1H-indazol-5-yl)amino)quinazolin-2-yl)phenoxy)-N-isopropylacetamide]",remaining binding at 10 µM,TRKB,98%
same,remaining binding at 10 µM,STK39,100%
same,remaining binding at 10 µM,TRPM6,93%
same,remaining binding at 10 µM,LZK,100%
same,remaining binding at 10 µM,PRKD1,72%
same,remaining binding at 10 µM,NEK11,99%
same,remaining binding at 10 µM,KIT(D816H),81%
same,remaining binding at 10 µM,DAPK1,85%
same,remaining binding at 10 µM,AKT2,90%
same,remaining binding at 10 µM,[1],100%
same,remaining binding at 10 µM,RET(V804M),59%
same,remaining binding at 10 µM,EPHA4,93%
same,remaining binding at 10 µM,TRKA,61%
same,remaining binding at 10 µM,CSNK2A2,0.5%
same,remaining binding at 10 µM,AKT1,88%
same,remaining binding at 10 µM,[2],31%
same,remaining binding at 10 µM,SNRK,14%
same,remaining binding at 10 µM,ERBB2,81%
same,remaining binding at 10 µM,MAK,84%
same,remaining binding at 10 µM,[3],86%
same,remaining binding at 10 µM,STK35,84%
same,remaining binding at 10 µM,GSK3A,100%
same,remaining binding at 10 µM,ASK1,100%
same,remaining binding at 10 µM,TBK1,66%
same,remaining binding at 10 µM,CLK3,68%
same,remaining binding at 10 µM,MYLK,66%
same,remaining binding at 10 µM,IRAK4,100%
same,remaining binding at 10 µM,PLK4,93%
same,remaining binding at 10 µM,ALK,54%
same,remaining binding at 10 µM,CDKL3,91%
same,remaining binding at 10 µM,CIT,75%
same,remaining binding at 10 µM,MAP3K1,85%
same,remaining binding at 10 µM,PKMYT1,83%
same,remaining binding at 10 µM,BRSK1,93%
same,remaining binding at 10 µM,EIF2AK1,77%
same,remaining binding at 10 µM,CSNK1G3,100%
same,remaining binding at 10 µM,FLT3(R834Q),69%
same,remaining binding at 10 µM,CSK,88%
same,remaining binding at 10 µM,DAPK3,35%
same,absolute bioavailability,[4],37%
same,remaining binding at 10 µM,PHKG1,87%
same,remaining binding at 10 µM,IKK-epsilon,70%
